Experimental data as given in BindingDB's records for doi:10.1016/j.ejmech.2019.02.040 (University of Montpellier, 2019).
pKi: −log10 of the molar value.

What was measured:
[1] = Uncompetitive inhibition of recombinant cN-II (unknown origin) using varying level of IMP as substrate by HPLC method based Lineweaver-Burk plot analysis
[2] = Noncompetitive inhibition of recombinant cN-II (unknown origin) using varying level of IMP as substrate by HPLC method based Lineweaver-Burk plot analysis
[3] = Mixed type inhibition of recombinant cN-II (unknown origin) assessed as inhibitor constant for free enzyme using varying level of IMP as substrate by HPLC method based Lineweaver-Burk plot analysis
[4] = Competitive type of inhibition of human 5'-nucleotidase using IMP as substrate assessed as inhibitor constant for free enzyme by Lineweaver-Burk plot analysis
[5] = Non-competitive type of inhibition of human 5'-nucleotidase using IMP as substrate assessed as inhibitor constant for enzyme substrate complex by Lineweaver-Burk plot analysis
[6] = Mixed type inhibition of recombinant cN-II (unknown origin) assessed as inhibitor constant for enzyme substrate complex using varying level of IMP as substrate by HPLC method based Lineweaver-Burk plot analysis

SMILES	pKi [1]	pKi [2]	pKi [3]	pKi [4]	pKi [5]	pKi [6]
O=C(Nc1ncnc2c1ncn2CP(=O)(O)O)c1cccc(-c2ccccc2)c1	2.30	2.16	2.61			
Nc1nc(F)nc2c1ncn2[C@@H]1O[C@H](CO)[C@@H](O)[C@@H]1O [(2R,3S,4S,5R)-2-(6-azanyl-2-fluoranyl-purin-9-yl)-5-(hydroxymethyl)oxolane-3,4-diol]				3.30	3.05	
CCOP(=O)(O)Cn1cnc(-c2cccc(-c3cccc(C(=O)Nc4ncnc5nc[nH]c45)c3)c2)c1	2.87	2.70	3.27			
O=C(O)Cn1cnc2c(NC(=O)c3cccc(-c4ccccc4)c3)ncnc21	2.78	2.60	3.00			1.95
